The test concerns the target T1, human glucocorticoid receptor (Homo sapiens, UniProt P04150).
T1 construct: purified human recombinant full-length glucocorticoid receptor; purchased Invitrogen Part #2893
T1 sequence (P04150 1-777): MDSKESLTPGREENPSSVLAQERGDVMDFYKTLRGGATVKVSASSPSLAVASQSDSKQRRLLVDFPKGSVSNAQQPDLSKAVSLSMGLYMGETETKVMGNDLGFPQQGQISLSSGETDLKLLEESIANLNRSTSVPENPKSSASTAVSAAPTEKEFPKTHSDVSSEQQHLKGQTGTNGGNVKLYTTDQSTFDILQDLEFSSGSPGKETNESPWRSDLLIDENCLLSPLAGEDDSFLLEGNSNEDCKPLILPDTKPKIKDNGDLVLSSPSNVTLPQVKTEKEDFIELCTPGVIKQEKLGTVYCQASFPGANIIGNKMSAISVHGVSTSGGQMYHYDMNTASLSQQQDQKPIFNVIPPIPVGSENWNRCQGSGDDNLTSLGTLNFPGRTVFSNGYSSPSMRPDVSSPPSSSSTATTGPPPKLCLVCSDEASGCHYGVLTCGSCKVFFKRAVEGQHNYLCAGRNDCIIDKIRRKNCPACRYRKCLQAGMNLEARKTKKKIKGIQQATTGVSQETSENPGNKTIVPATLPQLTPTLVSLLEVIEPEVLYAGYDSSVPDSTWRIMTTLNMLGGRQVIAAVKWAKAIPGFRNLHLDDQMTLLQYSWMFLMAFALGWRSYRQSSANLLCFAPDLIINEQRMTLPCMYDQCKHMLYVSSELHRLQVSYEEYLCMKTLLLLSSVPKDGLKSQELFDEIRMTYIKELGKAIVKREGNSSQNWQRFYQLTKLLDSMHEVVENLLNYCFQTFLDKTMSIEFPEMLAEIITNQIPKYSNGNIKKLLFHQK
Nature of the test: Glucocorticoid Receptor Binding Assay (I), fluorescence polarization competitor kit (Fluormone GS Red). The settings on record: GR Binding Assay (I). As for the experimental part:
Glucocorticoid Receptor Binding Assay (I)^a
In order to assess the affinity of test compounds for the human glucocorticoid receptor, a commercially available kit was used (Glucocorticoid Receptor Competitor Assay Kit, Invitrogen Part #2893). Briefly, purified human recombinant full-length glucocorticoid receptor (2 nM) was mixed with fluorescently labeled glucocorticoid (1 nM Fluormone GS Red) in the presence or absence of test compound. After two hour incubation at room temperature in the dark, the fluorescence polarization (FP) of the samples was measured. […] Test compounds were analyzed in the concentration range from 8.5 E-05 μM to 5 μM.

This passage reports Ki results from patent US7968577B2 (Bristol-Myers Squibb Company, priority 2006, dated 2011).

`CC(C)CC(c1ccc(-c2ccc(OC(F)(F)F)cc2)cc1)C(C)(C)C(=O)Nc1nncs1` (centres unmarked) [Example 437, 2,2,5-trimethyl-N-1,3,4-thiadiazol-2-yl-3-(4′-(trifluoromethoxy)-4-biphenylyl)hexanamide] had a Ki of 5.33 nM.
Under `CC(C)(C)c1csc(NC(=O)C2(C(c3ccccc3)c3ccccc3)CCCC2)n1` [Example 151, N-(4-(1,1-dimethylethyl)-1,3-thiazol-2-yl)-1-(diphenylmethyl) cyclopentanecarboxamide] stands 1150 nM; under `CC(C)CC(c1ccc(-c2cccc(Cl)c2)cc1)C(C)(C)C(=O)Nc1nncs1` (centres unmarked) [Example 434, 3-(3′-chloro-4-biphenylyl)-2,2,5-trimethyl-N-1,3,4-thiadiazol-2-ylhexanamide], 19.4 nM; under `CCCCOc1ccc(-c2ccc(C(c3ccccc3)C(C)(C)C(=O)Nc3nncs3)cc2)cc1` (centres unmarked) [Example 416, 3-(4′-butoxy-4-biphenylyl)-2,2-dimethyl-3-phenyl-N-1,3,4-thiadiazol-2-ylpropanamide], 42.5 nM.
Under `CC(C)CC(c1ccc(N2CCOCC2)cc1)C(C)(C)C(=O)Nc1nccs1` (centres unmarked) [Example 389, 2,2,5-trimethyl-3-(4-(4-morpholinyl)phenyl)-N-1,3-thiazol-2-ylhexanamide] stands 4.65 nM; under `CN(C)C(=O)c1ccc(-c2ccc(C(c3ccccc3)C(C)(C)C(=O)Nc3nccs3)cc2)cc1` (centres unmarked) [Example 381, 4′-(2,2-dimethyl-3-oxo-1-phenyl-3-(1,3-thiazol-2-ylamino)propyl)-N,N-dimethyl-4-biphenylcarboxamide], 3.53 nM.
Under `CCCc1ccc(-c2ccc(C(CC(C)C)C(C)(C)C(=O)Nc3nncs3)cc2)cc1` (centres unmarked) [Example 399, 2,2,5-trimethyl-3-(4′-propyl-4-biphenylyl)-N-1,3,4-thiadiazol-2-ylhexanamide] stands 7.1 nM; under `COc1ccc(-c2ccc(C(CC(C)C)C(C)(C)C(=O)Nc3nccs3)cc2)cc1` (centres unmarked) [Example 391, 2,2,5-trimethyl-3-(4′-(methyloxy)-4-biphenylyl)-N-1,3-thiazol-2-ylhexanamide], 11.1 nM.
`CCC(C)(C(=O)Nc1nccs1)C(c1ccccc1)c1ccccc1` (centres unmarked) [Example 176, 2-(diphenylmethyl)-2-methyl-N-1,3-thiazol-2-ylbutanamide] displayed an inhibitory constant (Ki) of 54 nM. This Ki lies about 4.9-fold higher than the previous one.
The value for `CC(C)CC(c1ccc(-c2ccc(C(=O)N(C)C)cc2)cc1)C(C)(C)C(=O)Nc1nccs1` (centres unmarked) [Example 392, 4′-(1-(1,1-dimethyl-2-oxo-2-(1,3-thiazol-2-ylamino)ethyl)-3-methylbutyl)-N,N-dimethyl-4-biphenylcarboxamide] was 6.83 nM; that for `CC(C)CC(c1ccc(-c2ccc(C(=O)NC3CC3)cc2)cc1)C(C)(C)C(=O)Nc1nncs1` (centres unmarked) [Example 429, N-cyclopropyl-4′-(1-(1,1-dimethyl-2-oxo-2-(1,3,4-thiadiazol-2-ylamino)ethyl)-3-methylbutyl)-4-biphenylcarboxamide] was 31 nM.
The value for `CC(=O)c1ccc(-c2ccc(C(CC(C)C)C(C)(C)C(=O)Nc3nncs3)cc2)cc1` (centres unmarked) [Example 438, 3-(4′-acetyl-4-biphenylyl)-2,2,5-trimethyl-N-1,3,4-thiadiazol-2-ylhexanamide] was 12 nM; that for `CC(C)(C(=O)Nc1nncs1)C(c1ccccc1)c1ccc(-c2cccc(Cl)c2)cc1` (centres unmarked) [Example 409, 3-(3′-chloro-4-biphenylyl)-2,2-dimethyl-3-phenyl-N-1,3,4-thiadiazol-2-ylpropanamide] was 25.4 nM; that for `CC(C)(C(=O)Nc1nncs1)C(c1ccccc1)c1ccc(-c2ccc(O)cc2)cc1` (centres unmarked) [Example 412, 3-(4′-hydroxy-4-biphenylyl)-2,2-dimethyl-3-phenyl-N-1,3,4-thiadiazol-2-ylpropanamide] was 16.5 nM.
Under `CC(C)CC(c1ccc(-c2ccc(-c3ccccc3)cc2)cc1)C(C)(C)C(=O)Nc1nncs1` (centres unmarked) [Example 433, 2,2,5-trimethyl-3-(1,1′:4′,1″-terphenyl-4-yl)-N-1,3,4-thiadiazol-2-ylhexanamide] stands 12.4 nM.
As for `CC(C)Cc1ccc(-c2ccc(C(CC(C)C)C(C)(C)C(=O)Nc3nncs3)cc2)cc1` (centres unmarked) [Example 397, 2,2,5-trimethyl-3-(4′-(2-methylpropyl)-4-biphenylyl)-N-1,3,4-thiadiazol-2-ylhexanamide], affinity was put at a Ki of 12.1 nM.
The value for `CC(=O)c1cccc(-c2ccc(C(c3ccccc3)C(C)(C)C(=O)Nc3nncs3)cc2)c1` (centres unmarked) [Example 413, 3-(3′-acetyl-4-biphenylyl)-2,2-dimethyl-3-phenyl-N-1,3,4-thiadiazol-2-ylpropanamide] was 110 nM.
With `CCOc1ccc(-c2ccc(C(CC(C)C)C(C)(C)C(=O)Nc3nncs3)cc2)cc1` (centres unmarked) [Example 430, 3-(4′-ethoxy-4-biphenylyl)-2,2,5-trimethyl-N-1,3,4-thiadiazol-2-ylhexanamide], the Ki is 4.87 nM.
Under `CC(C)(C(=O)Nc1nncs1)C(c1ccccc1)c1ccc(Oc2ccccc2)cc1` (centres unmarked) [Example 322, 2,2-dimethyl-3-phenyl-3-(4-(phenyloxy)phenyl)-N-1,3,4-thiadiazol-2-ylpropanamide] stands 5.17 nM; under `CC(C)CC(c1ccc(-c2ccc(O)cc2)cc1)C(C)(C)C(=O)Nc1nncs1` (centres unmarked) [Example 436, 3-(4′-hydroxy-4-biphenylyl)-2,2,5-trimethyl-N-1,3,4-thiadiazol-2-ylhexanamide], 105 nM.
The value for `COc1cccc(-c2ccc(C(c3ccccc3)C(C)(C)C(=O)Nc3nncs3)cc2)c1` (centres unmarked) [Example 410, 3-(3′-methoxy-4-biphenylyl)-2,2-dimethyl-3-phenyl-N-1,3,4-thiadiazol-2-ylpropanamide] was 4.45 nM; that for `CC(C)CC(c1ccc(-c2ccc3c(c2)CCO3)cc1)C(C)(C)C(=O)Nc1nncs1` (centres unmarked) [Example 441, 3-(4-(2,3-dihydro-1-benzofuran-5-yl)phenyl)-2,2,5-trimethyl-N-1,3,4-thiadiazol-2-ylhexanamide] was 104 nM.
The value for `CC(C)(C(=O)Nc1nncs1)C(c1ccccc1)c1ccc(-c2ccc3c(c2)CCO3)cc1` (centres unmarked) [Example 415, 3-(4-(2,3-dihydro-1-benzofuran-5-yl)phenyl)-2,2-dimethyl-3-phenyl-N-1,3,4-thiadiazol-2-ylpropanamide] was 6.08 nM.
`CC(=O)c1cccc(-c2ccc(C(CC(C)C)C(C)(C)C(=O)Nc3nncs3)cc2)c1` (centres unmarked) [Example 439, 3-(3′-acetyl-4-biphenylyl)-2,2,5-trimethyl-N-1,3,4-thiadiazol-2-ylhexanamide] yielded a Ki of 20.3 nM.
Under `CC(C)CC(c1ccc(-c2ccccc2)cc1)C(C)(C)C(=O)Nc1nncs1` (centres unmarked) [Example 431, 3-(4-biphenylyl)-2,2,5-trimethyl-N-1,3,4-thiadiazol-2-ylhexanamide] stands 52.8 nM.
Turning to `COc1ccccc1-c1ccc(C(c2ccccc2)C(C)(C)C(=O)Nc2nncs2)cc1` (centres unmarked) [Example 411, 3-(2′-methoxy-4-biphenylyl)-2,2-dimethyl-3-phenyl-N-1,3,4-thiadiazol-2-ylpropanamide], the Ki is 154 nM.
As to `CCC(CC)(C(=O)Nc1nccs1)C(c1ccccc1)c1ccccc1` [Example 159, 2-(diphenylmethyl)-2-ethyl-N-1,3-thiaozl-2-ylbutanamide], the Ki turned out to be 101 nM.
The value for `Cc1nnc(NC(=O)C(C)(C)C(CC(C)C)c2ccc(N3CCOCC3)cc2)s1` (centres unmarked) [Example 388, 2,2,5-trimethyl-N-(5-methyl-1,3,4-thiadiazol-2-yl)-3-(4-(4-morpholinyl)phenyl)hexanamide] was 14 nM; that for `COc1ccc(-c2ccc(C(CC(C)C)C(C)(C)C(=O)Nc3nncs3)cc2)cc1` (centres unmarked) [Example 394, 2,2,5-trimethyl-3-(4′-(methyloxy)-4-biphenylyl)-N-1,3,4-thiadiazol-2-ylhexanamide] was 9.28 nM; that for `CC(C)CC(c1ccc(N2CCOCC2)cc1)C(C)(C)C(=O)Nc1nncs1` (centres unmarked) [Example 390, 2,2,5-trimethyl-3-(4-(4-morpholinyl)phenyl)-N-1,3,4-thiadiazol-2-ylhexanamide] was 5.41 nM.
Molecule `CCOc1ccc(-c2ccc(C(c3ccccc3)C(C)(C)C(=O)Nc3nncs3)cc2)cc1` (centres unmarked) [Example 419, 3-(4′-ethoxy-4-biphenylyl)-2,2-dimethyl-3-phenyl-N-1,3,4-thiadiazol-2-ylpropanamide] yielded a Ki of 5.53 nM.
`CC(C)(C(=O)Nc1nncs1)C(c1ccccc1)c1ccc(Cc2ccccc2)cc1` (centres unmarked) [Example 320, 2,2-dimethyl-3-phenyl-3-(4-(phenylmethyl)phenyl)-N-1,3,4-thiadiazol-2-ylpropanamide] gave a Ki of 187 nM.

The term Ki denotes the dissociation constant of the complex between target and ligand, obtained from inhibition or displacement. A lower Ki goes with tighter binding.
